For data set [1], the target named is Phosphatidylinositol 4,5-bisphosphate 3-kinase catalytic subunit alpha isoform (Homo sapiens, UniProt P42336). The experiment in a line: Inhibition of PI3Kalpha (unknown origin).
Data set [2] deals with T1, Phosphatidylinositol 4,5-bisphosphate 3-kinase catalytic subunit beta isoform (Homo sapiens, UniProt P42338). The experiment in a line: Inhibition of PI3Kbeta (unknown origin).
The nature of data set [3]: Inhibition of PI3Kalpha mutant in human BT474 cells assessed as reduction in AKT phosphorylation at Thr308. The class given is cell-based. Conditions: BT-474.
In data set [4] the target is T1, Phosphatidylinositol 4,5-bisphosphate 3-kinase catalytic subunit beta isoform. The experiment in a line: Inhibition of PI3Kbeta in PTEN-deficient human MDA-MB-468 cells assessed as reduction in AKT phosphorylation at Ser473.
Data set [5] can be described thus: Aqueous solubility of the compound in phosphate buffer at pH 7.4 using crystalline sample. The class given is physicochemical.
Data set [6] can be described thus: Dissociation constant, pKa of the compound. The class given is physicochemical.
A short description of data set [7]: Octanol-buffer partition coefficient, log D of the compound at pH 7.4 by shake-flask method. Format: physicochemical.
The nature of data set [8]: Apparent permeability of the compound across apical side to basolateral side in human Caco2 cells. The class given is ADME, cell-based. Conditions: Caco-2. (In general: Passage across Caco-2 layers is used to estimate intestinal permeability.)
The nature of data set [9]: Clearance in Han Wistar rat at 4 umol/kg, iv or 10 umol/kg, po. Format: ADME, organism-based. Particulars: in vivo.
The nature of data set [10]: Volume of distribution in Han Wistar rat at 4 umol/kg, iv or 10 umol/kg, po. Particulars: in vivo. Format: ADME, organism-based.
Data set [11] is described as follows: Oral bioavailability in Han Wistar rat at 10 umol/kg. Format: ADME, organism-based. Conditions: in vivo.
The nature of data set [12]: Clearance in Beagle dog at 1 umol/kg, po. The class given is ADME, Canis lupus familiaris. Particulars: in vivo.
Data set [13] concerns Canis familiaris. The data set can be described thus: Volume of distribution in Beagle dog at 1 umol/kg, po. Format: ADME, Canis lupus familiaris. Particulars: in vivo.
Data set [14] can be described thus: Oral bioavailability in Beagle dog at 1 umol/kg. Conditions: in vivo. The class given is ADME, organism-based, Canis lupus familiaris.
Data set [15] is described as follows: AUC in mouse at 100 mg/kg, po. The class given is ADME, organism-based. Particulars: in vivo.
The nature of data set [16]: Cmax in mouse at 100 mg/kg, po. Format: ADME, organism-based. Set-up: dose 100 mg/kg, route oral. Particulars: in vivo.
For data set [17], the system named is MCF7. The experiment in a line: Anti-tumor activity against human MCF7 cells harboring PI3KCA E545K mutant xenografted in Swiss nu/nu mouse assessed as tumor growth inhibition at 50 mg/kg, po administered twice daily for 21 days measured post last dose relative to control. The class given is functional. Conditions: 504 h, read-out: TGI.
For data set [18], the system named is MCF7. The data set can be described thus: Anti-tumor activity against human MCF7 cells harboring PI3KCA E545K mutant xenografted in Swiss nu/nu mouse assessed as tumor growth inhibition at 25 mg/kg, po administered twice daily for 21 days measured post last dose relative to control. Conditions: 504 h, read-out: TGI. The class given is functional. A general note: A xenograft is tissue or cells of one species grown in another, often human tumour cells in immunodeficient mice.

The subject of data set [19] is MCF7. The experiment in a line: Anti-tumor activity against human MCF7 cells harboring PI3KCA E545K mutant xenografted in Swiss nu/nu mouse assessed as tumor growth inhibition at 10 mg/kg, po administered twice daily for 21 days measured post last dose relative to control. Format: functional. Particulars: 504 h, read-out: TGI.
For data set [20], the target named is T2, Phosphatidylinositol 4,5-bisphosphate 3-kinase catalytic subunit gamma isoform (Homo sapiens, UniProt P48736). The experiment in a line: Inhibition of PI3Kgamma (unknown origin).
Target sequence in this assay (P48736 whole entry, canonical isoform): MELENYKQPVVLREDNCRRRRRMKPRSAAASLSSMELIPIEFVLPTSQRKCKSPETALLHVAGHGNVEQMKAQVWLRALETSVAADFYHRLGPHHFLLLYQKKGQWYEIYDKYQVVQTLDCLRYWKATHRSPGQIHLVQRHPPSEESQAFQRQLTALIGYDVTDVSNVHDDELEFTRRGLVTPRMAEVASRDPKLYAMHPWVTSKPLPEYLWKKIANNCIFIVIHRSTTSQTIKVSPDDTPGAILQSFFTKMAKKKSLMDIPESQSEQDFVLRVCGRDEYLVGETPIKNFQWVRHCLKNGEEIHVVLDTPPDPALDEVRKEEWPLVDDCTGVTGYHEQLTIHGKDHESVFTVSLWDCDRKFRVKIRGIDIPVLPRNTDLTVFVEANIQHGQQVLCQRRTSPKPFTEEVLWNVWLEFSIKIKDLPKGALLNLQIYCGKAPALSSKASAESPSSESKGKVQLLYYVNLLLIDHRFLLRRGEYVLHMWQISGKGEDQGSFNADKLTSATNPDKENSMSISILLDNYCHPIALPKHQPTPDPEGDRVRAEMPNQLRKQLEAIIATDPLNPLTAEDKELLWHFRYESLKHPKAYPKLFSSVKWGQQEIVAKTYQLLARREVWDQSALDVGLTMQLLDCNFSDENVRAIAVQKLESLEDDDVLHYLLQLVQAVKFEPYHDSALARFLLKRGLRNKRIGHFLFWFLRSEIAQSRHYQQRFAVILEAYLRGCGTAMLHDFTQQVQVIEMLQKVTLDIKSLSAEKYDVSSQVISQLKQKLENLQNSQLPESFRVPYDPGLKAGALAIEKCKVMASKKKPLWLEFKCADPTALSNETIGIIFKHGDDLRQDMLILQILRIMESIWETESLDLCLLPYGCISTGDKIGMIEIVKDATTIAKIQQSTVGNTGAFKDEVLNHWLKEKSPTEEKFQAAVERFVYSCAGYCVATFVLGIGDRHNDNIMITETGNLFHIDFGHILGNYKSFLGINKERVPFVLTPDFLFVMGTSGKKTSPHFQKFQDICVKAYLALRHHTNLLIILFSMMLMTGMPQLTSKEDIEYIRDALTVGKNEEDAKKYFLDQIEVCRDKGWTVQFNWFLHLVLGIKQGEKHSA
Data set [21] has as its target Phosphatidylinositol 4,5-bisphosphate 3-kinase catalytic subunit delta isoform (Homo sapiens, UniProt O00329). The data set can be described thus: Inhibition of PI3Kdelta (unknown origin).
In data set [22] the target is Phosphatidylinositol 4-kinase beta (Homo sapiens, UniProt Q9UBF8). The experiment in a line: Inhibition of human PI4KB (1 to 801 residues) by ADP Glo HTS assay.
Data set [23] has as its target Phosphoinositide 3-kinase regulatory subunit 4 (Homo sapiens, UniProt Q99570). The data set can be described thus: Inhibition of VPS15 (unknown origin).
Data set [24] concerns the target Serine/threonine-protein kinase mTOR (Homo sapiens, UniProt P42345). The experiment in a line: Inhibition of m-TOR (unknown origin).
Data set [25] deals with Choline kinase alpha (Homo sapiens) (UniProt P35790). The experiment in a line: Inhibition of human CHKalpha (1 to 457 residues) at 50 uM by ADP Glo HTS assay. On the technique in general: In ADP-Glo the light output rises with the ADP produced.
Data set [26] has as its target Choline/ethanolamine kinase (Homo sapiens) (UniProt Q9Y259). The data set can be described thus: Inhibition of human CHKbeta (1 to 395 residues) at 50 uM by ADP Glo HTS assay.
Data set [27] concerns the target Diacylglycerol kinase beta (Homo sapiens) (UniProt Q9Y6T7). The data set can be described thus: Inhibition of human DGKbeta (1 to 804 residues) at 50 uM by ADP Glo HTS assay.
Data set [28] concerns the target Diacylglycerol kinase gamma (Homo sapiens) (UniProt P49619). The experiment in a line: Inhibition of human DGKgamma (1 to 752 residues) at 50 uM by ADP Glo HTS assay.
Data set [29] concerns the target Diacylglycerol kinase zeta (Homo sapiens) (UniProt Q13574). The experiment in a line: Inhibition of human DGKzeta (1 to 929 residues) at 50 uM by ADP Glo HTS assay.
Data set [30] has as its target Phosphatidylinositol 3-kinase regulatory subunit alpha (Homo sapiens) (UniProt P27986). The data set can be described thus: Inhibition of human PI3K p85alpha (1 to 724 residues) at 50 uM by ADP Glo HTS assay.
For data set [31], the system named is Phosphatidylinositol 4,5-bisphosphate 3-kinase catalytic subunit alpha isoform (Homo sapiens), P42336 [E542K]. The data set can be described thus: Inhibition of human PI3Kalpha (2 to 1068 residues)/p85 (1 to 724 residues) E542K mutant at 50 uM by ADP Glo HTS assay.
For data set [32], the system named is Phosphatidylinositol 4,5-bisphosphate 3-kinase catalytic subunit alpha isoform (Homo sapiens), P42336 [E545K]. The experiment in a line: Inhibition of human PI3Kalpha (2 to 1068 residues)/p85 (1 to 724 residues) E545K mutant at 50 uM by ADP Glo HTS assay.
Data set [33] addresses Sphingosine kinase 1 (Homo sapiens) (UniProt Q9NYA1). The experiment in a line: Inhibition of human SphK1 (1 to 384 residues) at 50 uM by […] HTS assay.
Data set [34] addresses Phosphatidylinositol 3-kinase regulatory subunit beta (Homo sapiens) (UniProt O00459). The experiment in a line: Inhibition of human PI3K p85beta (1 to 724 residues) at 50 uM by ADP Glo HTS assay.
The target of data set [35] is T2, Phosphatidylinositol 4,5-bisphosphate 3-kinase catalytic subunit gamma isoform. The data set can be described thus: Inhibition of human PI3Kgamma (2 to 1102 residues) at 50 uM by ADP Glo HTS assay.
The target in data set [36] is Sphingosine kinase 2 (Homo sapiens) (UniProt Q9NRA0). The data set can be described thus: Inhibition of human SPHK 2 (1 to 654 residues) at 50 uM by ADP Glo HTS assay.
Data set [37] can be described thus: Aqueous solubility of the compound in phosphate buffer at pH 7.4. Format: physicochemical.

The structures appear in SMILES notation. In brackets after ≈: the same amount, converted by molar mass. Activity calls are given as the source filed them. The rule behind the calls is not given here.

What is called IC50 is the concentration needed to halve the response being measured. By thermodynamic solubility is commonly meant the concentration in solution at equilibrium with solid. In general, pKa refers to the pH at which an ionisable group is half protonated. One may read the logD as lipophilicity at a set pH, counting ionised and neutral species. Read a low logD as a more hydrophilic compound. As a reminder, the Papp A→B is how fast a substance crosses the layer from the apical side. As usually defined, the bioavailability is the share of a dose that reaches the circulation, judged against a reference dose that is usually intravenous. High values mean good availability, low ones poor availability. One may read the CL/F as the apparent clearance, not corrected for the fraction that reaches the circulation. By AUC is commonly meant the area under the concentration-time curve, a measure of exposure. In general, Cmax refers to the highest concentration seen after dosing. Broadly, the solubility is how much of the substance goes into solution per volume. A low value points to little dissolved substance.

Phosphatidylinositol 4,5-bisphosphate 3-kinase catalytic subunit alpha isoform, sequence (P42336 whole entry, canonical isoform): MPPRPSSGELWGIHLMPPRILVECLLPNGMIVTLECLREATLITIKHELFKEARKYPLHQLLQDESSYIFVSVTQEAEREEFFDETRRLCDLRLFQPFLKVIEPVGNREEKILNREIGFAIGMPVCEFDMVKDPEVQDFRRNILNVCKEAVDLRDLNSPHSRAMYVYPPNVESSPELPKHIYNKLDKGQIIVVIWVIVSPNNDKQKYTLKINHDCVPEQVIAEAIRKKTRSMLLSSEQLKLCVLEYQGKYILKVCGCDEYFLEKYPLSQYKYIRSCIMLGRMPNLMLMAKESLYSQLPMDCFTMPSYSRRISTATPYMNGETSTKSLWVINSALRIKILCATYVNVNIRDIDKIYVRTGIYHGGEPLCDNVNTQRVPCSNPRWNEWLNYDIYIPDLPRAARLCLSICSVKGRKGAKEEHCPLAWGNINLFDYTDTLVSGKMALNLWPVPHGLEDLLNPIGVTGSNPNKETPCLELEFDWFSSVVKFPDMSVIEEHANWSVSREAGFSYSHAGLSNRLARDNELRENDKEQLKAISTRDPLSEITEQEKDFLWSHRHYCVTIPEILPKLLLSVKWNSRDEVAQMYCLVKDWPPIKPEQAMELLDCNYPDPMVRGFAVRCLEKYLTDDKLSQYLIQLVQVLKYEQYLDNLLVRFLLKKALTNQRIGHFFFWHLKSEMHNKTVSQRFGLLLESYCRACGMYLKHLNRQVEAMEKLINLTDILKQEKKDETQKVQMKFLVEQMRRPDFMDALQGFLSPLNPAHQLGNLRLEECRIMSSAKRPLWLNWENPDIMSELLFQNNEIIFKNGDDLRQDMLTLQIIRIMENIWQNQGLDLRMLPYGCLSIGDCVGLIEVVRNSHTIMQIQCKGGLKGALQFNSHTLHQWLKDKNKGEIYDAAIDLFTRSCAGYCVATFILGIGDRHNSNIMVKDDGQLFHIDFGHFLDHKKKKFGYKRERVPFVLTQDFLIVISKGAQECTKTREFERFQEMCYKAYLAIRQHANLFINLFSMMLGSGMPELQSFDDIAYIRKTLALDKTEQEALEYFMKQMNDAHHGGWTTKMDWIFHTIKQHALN
T1 sequence (P42338 whole entry, canonical isoform): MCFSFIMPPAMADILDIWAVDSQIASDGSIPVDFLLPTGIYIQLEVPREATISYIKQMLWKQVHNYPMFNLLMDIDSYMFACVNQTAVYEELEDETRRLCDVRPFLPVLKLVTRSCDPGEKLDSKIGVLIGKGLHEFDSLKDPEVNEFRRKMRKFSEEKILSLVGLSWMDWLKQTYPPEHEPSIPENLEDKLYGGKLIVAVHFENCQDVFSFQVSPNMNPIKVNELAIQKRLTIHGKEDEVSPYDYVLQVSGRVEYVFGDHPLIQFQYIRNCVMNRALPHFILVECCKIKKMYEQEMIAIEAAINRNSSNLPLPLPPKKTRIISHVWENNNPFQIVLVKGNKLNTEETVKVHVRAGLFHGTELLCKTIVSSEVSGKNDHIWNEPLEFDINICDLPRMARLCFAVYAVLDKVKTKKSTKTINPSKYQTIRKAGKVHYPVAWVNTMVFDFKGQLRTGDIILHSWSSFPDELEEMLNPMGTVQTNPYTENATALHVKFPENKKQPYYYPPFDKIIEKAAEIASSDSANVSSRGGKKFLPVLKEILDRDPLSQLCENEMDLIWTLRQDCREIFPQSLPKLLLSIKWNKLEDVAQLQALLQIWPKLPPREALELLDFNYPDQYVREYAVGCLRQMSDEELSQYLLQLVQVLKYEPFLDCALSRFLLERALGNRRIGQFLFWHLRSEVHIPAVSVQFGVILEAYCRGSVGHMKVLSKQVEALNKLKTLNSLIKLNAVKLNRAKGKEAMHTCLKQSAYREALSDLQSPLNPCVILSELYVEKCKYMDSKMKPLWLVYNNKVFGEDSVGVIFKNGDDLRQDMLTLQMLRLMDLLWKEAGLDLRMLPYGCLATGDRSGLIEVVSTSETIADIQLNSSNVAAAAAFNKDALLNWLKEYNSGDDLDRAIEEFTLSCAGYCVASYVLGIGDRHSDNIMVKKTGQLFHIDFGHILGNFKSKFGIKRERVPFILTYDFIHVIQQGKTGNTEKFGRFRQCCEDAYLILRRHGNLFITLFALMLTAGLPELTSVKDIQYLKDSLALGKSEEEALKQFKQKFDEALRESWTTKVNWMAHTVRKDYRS
Choline kinase alpha (Homo sapiens), sequence (P35790 whole entry, looked up, the tested form may be a part): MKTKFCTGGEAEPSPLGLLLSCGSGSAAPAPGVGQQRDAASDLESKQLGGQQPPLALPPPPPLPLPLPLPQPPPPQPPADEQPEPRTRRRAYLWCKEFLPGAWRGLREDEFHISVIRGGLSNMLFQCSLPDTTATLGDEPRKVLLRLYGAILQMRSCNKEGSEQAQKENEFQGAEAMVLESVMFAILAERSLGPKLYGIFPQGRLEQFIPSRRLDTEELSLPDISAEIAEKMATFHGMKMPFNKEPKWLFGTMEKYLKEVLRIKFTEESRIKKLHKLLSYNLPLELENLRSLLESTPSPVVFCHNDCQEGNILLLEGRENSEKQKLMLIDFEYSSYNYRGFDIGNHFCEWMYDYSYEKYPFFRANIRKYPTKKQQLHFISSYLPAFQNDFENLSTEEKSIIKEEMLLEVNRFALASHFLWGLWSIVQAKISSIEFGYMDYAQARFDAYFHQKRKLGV
Phosphatidylinositol 4-kinase beta, sequence (Q9UBF8 whole entry, the tested form may be a part): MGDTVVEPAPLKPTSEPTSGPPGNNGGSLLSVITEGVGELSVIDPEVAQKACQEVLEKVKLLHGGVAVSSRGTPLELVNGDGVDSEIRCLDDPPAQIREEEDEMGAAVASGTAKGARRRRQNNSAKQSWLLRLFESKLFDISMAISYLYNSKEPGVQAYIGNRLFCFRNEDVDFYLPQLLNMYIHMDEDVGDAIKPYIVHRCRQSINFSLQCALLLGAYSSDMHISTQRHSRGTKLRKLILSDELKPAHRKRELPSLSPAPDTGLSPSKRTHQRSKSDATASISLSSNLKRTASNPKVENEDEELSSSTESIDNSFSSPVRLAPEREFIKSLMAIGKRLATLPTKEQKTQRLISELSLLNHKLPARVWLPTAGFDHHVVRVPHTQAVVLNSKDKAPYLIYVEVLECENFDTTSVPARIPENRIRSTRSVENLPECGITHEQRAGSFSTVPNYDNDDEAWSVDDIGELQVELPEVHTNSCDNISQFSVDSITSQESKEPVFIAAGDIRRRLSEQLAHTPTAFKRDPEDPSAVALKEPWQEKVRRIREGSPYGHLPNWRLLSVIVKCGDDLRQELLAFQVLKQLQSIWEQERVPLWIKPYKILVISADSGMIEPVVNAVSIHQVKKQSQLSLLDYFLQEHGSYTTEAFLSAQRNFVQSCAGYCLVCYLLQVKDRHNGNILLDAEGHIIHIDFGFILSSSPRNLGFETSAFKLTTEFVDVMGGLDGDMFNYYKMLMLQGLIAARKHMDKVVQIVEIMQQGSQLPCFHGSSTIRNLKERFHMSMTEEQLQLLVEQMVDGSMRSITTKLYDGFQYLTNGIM
Choline/ethanolamine kinase (Homo sapiens), sequence (Q9Y259 whole entry, the tested form may be a part): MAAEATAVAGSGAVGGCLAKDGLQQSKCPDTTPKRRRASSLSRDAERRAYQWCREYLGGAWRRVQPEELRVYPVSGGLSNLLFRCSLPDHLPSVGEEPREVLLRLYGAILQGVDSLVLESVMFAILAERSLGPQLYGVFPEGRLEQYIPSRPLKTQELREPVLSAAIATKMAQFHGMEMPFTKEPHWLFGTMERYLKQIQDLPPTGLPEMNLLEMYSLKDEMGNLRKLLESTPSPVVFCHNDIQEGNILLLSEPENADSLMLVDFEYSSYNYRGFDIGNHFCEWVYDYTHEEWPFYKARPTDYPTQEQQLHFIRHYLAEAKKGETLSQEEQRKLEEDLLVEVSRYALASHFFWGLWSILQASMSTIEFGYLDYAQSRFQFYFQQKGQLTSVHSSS

As for `CNC(=O)c1nc(-c2nc(-c3cnc4ccccn34)cnc2N)n(C)n1`, the IC50 in data set [1] amounted to 20 nM; in [2], 1300 nM; in data set [3], 380 nM; in [4] it was 21000 nM.
For `Cc1nc(N)c(-c2cnn(C3CCN(C)CC3)n2)nc1-c1cnc2ccccn12` the same measures were 8 nM, 76 nM, 100 nM and 550 nM.
Regarding `Cc1nc(N)c(-c2nc(C(=O)NCCN(C)C)nn2C)nc1-c1cnn2ccccc12`, the IC50 in [3] turned out to be 6 nM; in [4], 1500 nM.
As to `CNC(=O)c1nc(-c2nc(-c3cnc4ccccn34)c(C)nc2N)n(C)n1`, in [5], the thermodynamic solubility is 26 µM (≈ 9.45 µg/mL). Also, the IC50 is 6 nM in data set [1]; 87 to 540 nM in data set [2]; 87 nM in data set [3]; 8400 nM in data set [4]; 43 nM in data set [20]; 16 nM in data set [21]. Further, the results for the IC50 in data set [22], in data set [23] and in data set [24] were 2800 nM, 16000 nM and 29000 nM, respectively. Moreover, the pKa in [6] turned out to be 6.2. The logD in data set [7] came to 1.8. The Papp A→B in [8] was found to be 6 ×10⁻⁶ cm/s. The same molecule registered a clearance in data set [9] of 11 mL/min/kg. The results for the Vd in [10] and in data set [13] were 0.9 L/kg and 0.8 L/kg, respectively. Also, the values for the bioavailability in data set [11] and in [14] were 46% and 60%, respectively. For the same molecule, the CL/F in data set [12] was found to be 19 mL/min/kg. The molecule further gave an AUC in data set [15] of 36.2 µM·h. The Cmax in [16] amounted to 18 µM. In [17], the inhibition in vivo at 50 mg/kg turned out to be 86%. In addition, the inhibition in vivo at 25 mg/kg in data set [18] stood at 44%. Besides, the inhibition in vivo at 10 mg/kg in data set [19] was 29%. Moreover, the inhibition entry in data set [25], in [26], in [27], in data set [28], in data set [29] and in data set [30] was “inactive” in each case. Besides, the inhibition entry in data set [31], in data set [32], in data set [33], in data set [34], in data set [35] and in [36] was “inactive” in each case.
Regarding `CNC(=O)c1nc(-c2nc(-c3cnn4ccccc34)c(C)nc2N)n(C)n1`, the IC50 was less than 10 nM in data set [1], 24 to 180 nM in data set [2], 24 nM in [3] and 1500 nM in data set [4]. The molecule also yielded a pKa in data set [6] of 2.3. The molecule also had a logD in [7] of 2.3. The molecule also had a solubility in data set [37] of 7 µM (≈ 2.54 µg/mL). For the same molecule, the Papp A→B in data set [8] is 36 ×10⁻⁶ cm/s. Also, in [9], the clearance turned out to be 27 mL/min/kg. For the same molecule, in data set [10], the Vd came to 0.8 L/kg. The bioavailability in [11] is 9%.
Consider `CN(C)CC(=O)N1CCC(n2cc(-c3cnc(N)c(-n4nnc5ccccc54)n3)cn2)CC1`, for which, in data set [3], the IC50 was determined as 58 nM.
In the case of `Cc1nc(N)c(-c2nc(C3CCN(C)CC3)nn2C)nc1-c1cnc2ccccn12`, the IC50 worked out at 5 nM in data set [1], 32 nM in [2], 49 nM in data set [3] and 200 nM in [4].
For the molecule `CO[C@H]1CC[C@H](NC(=O)c2nc(-c3nc(-c4cnc5ccccn45)c(C)nc3N)n(C)n2)CC1`, the IC50 in data set [3] was determined as 22 nM; in data set [4], 16000 nM.

For the origin of these results see ChEMBL document CHEMBL4033707, “Discovery of a novel aminopyrazine series as selective PI3Kα inhibitors” (Bioorg Med Chem Lett, 2017).
